Calls of active or inactive are those of the source. The rule behind the calls is not given here.
target: Mu-type opioid receptor (Homo sapiens) (UniProt P35372); experiment: activators of OPRM1-OPRD1 heterodimerization, late-stage follow-up, cell-based, luminescence, dose response (AID 651685); conditions: cells, luminescence complementation
Sequence (P35372 whole entry, looked up): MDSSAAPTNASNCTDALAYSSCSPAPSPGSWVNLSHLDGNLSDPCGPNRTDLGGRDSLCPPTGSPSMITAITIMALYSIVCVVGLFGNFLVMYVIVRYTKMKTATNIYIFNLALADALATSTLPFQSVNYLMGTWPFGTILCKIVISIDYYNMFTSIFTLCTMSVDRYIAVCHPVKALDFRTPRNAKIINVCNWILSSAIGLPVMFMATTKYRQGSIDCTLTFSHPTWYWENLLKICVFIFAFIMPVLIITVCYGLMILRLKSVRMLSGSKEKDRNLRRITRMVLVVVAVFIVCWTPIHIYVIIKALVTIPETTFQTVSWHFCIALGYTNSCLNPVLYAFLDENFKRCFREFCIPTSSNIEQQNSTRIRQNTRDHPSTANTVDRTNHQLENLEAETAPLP

Question: With CCOC(=O)C1(CCOc2ccccc2)CCN(Cc2cccn2-c2cccnc2)CC1 as the compound, how does the EC50 read?
Answer: 4.4 µM

Question: CCOC(=O)C1(CCc2ccccc2)CCN(Cc2cc(C)cc(C)c2)CC1 was tested. Which EC50 did it give?
Answer: > 40 µM (inactive)

Question: Which EC50 does the source give for CCOC(=O)C1(CCc2ccccc2)CCN(Cc2ccccc2C)CC1 here?
Answer: 7 µM

Question: How did the EC50 turn out when CCOC(=O)C1(CC2CCCCO2)CCN(Cc2c(C)cc(C)cc2-n2cccn2)CC1 (stereo unspecified) was run?
Answer: 0.901 µM

Question: Which EC50 does the source give for CCOC(=O)C1(CCc2ccccc2)CCN(Cc2ccc(NC(C)=O)cc2)CC1 here?
Answer: 0.403 µM

Question: With CCOC(=O)C1(CCCc2ccccc2)CCN(Cc2cnn(C)c2)CC1 as the compound, how does the EC50 read?
Answer: 8.9 µM

Question: How did the EC50 turn out when CCOC(=O)C1(Cc2ccccc2)CCN(Cc2cccn2-c2cccnc2)CC1 was run?
Answer: > 40 µM (inactive)

Question: CCOC(=O)C1(CCc2ccccc2)CCN(Cc2ccc(OC(C)C)c(C#N)c2)CC1 was tested. Which EC50 did it give?
Answer: > 40 µM (inactive)

Question: How did the EC50 turn out when CCOC(=O)C1(Cc2ccccc2)CCN(Cc2cccn2-c2nccs2)CC1 was run?
Answer: > 40 µM (inactive)

Question: How did the EC50 turn out when CCOC(=O)C1(CCOc2ccccc2)CCN(Cc2ccc(O)c(OC)c2)CC1 was run?
Answer: inactive

Question: OCC1(CCc2ccccc2)CCN(Cc2cc(F)ccc2-n2cccn2)CC1 was tested. Which EC50 did it give?
Answer: > 40 µM (inactive)

Reference: PubChem BioAssay AID651685 (The Scripps Research Institute Molecular Screening Center, 2012)
